Measurements reported in patent US20050281888A1, “Nutritional supplement for infants” (priority 2004, published 2005).

System: blood lymphocytes
Assay: Zinc dose response: lymphocyte response to mitogen PHA in supplemented infants
Format: in vivo, infants (human), age 4-36 months
Details: for Lymphocyte response to PHA (stimulation index): infants age 4-36 months
Procedure: The basic concept underlying the assessment of the most optimum nutrient amounts for a given age group uses the principle of “dose-response graphs”. At least four groups of individuals were provided with various amounts of a given nutrient and their immune responses were measured using established and accepted techniques. The amount of a nutrient that gave the best response was considered the optimum amount. Dose response graphs were determined for all vitamins and trace elements considered essential for human health, particularly immunity.
Data for the dose response chart for zinc in a group of 4 to 36 month old infants is shown in FIG. 1, with the total amount of zinc taken is shown for each group. To determine the magnitude of immune response, an aliquot of blood was withdrawn from each subject in the study, blood lymphocytes were separated, washed and mixed with the mitogen phytohemagglutinin (PHA) in previously determined optimum amount. The optimum amount of PHA used in the experiments was predetermined by a set of dose response graphs using lymphocytes of a healthy donor and four different concentrations of PHA. After culture in a sterile environment for 72 hours, the cells were washed and mixed with radioactive thymidine. The same steps were undertaken in a control sample in which only the culture medium was used, not PHA. The cells were washed and radioactivity determined.
Dietary intake of zinc was calculated based on three 24-hour recalls and by the food frequency questionnaire methods.

For `[Zn]` [zinc], the “Immune response, conclusion in words” value (3 mg zinc intake in addition to zinc from a balanced diet) was “best immune response”, the “Lymphocyte response to PHA (stimulation index)” value (supplemental zinc 3 mg) was 58 and the “Lymphocyte response to PHA (stimulation index)” value (supplemental zinc 6 mg) was 41. The “Lymphocyte response to PHA (stimulation index)” value (supplemental zinc 9 mg) was 32.
